Tests used:
VAChT [1] = biological target: VAChT (Rattus norvegicus (Rat), UniProt Q62666); assay: Ex vivo autoradiography of rat brain; type: in vivo, Sprague-Dawley rat; conditions: for uptake ratio of radioactivity in striatum versus cerebellum: 30 slices, 60 min post-injection, tail vein; for brain distribution of radioactivity (autoradiograms): 1 h after injection
Method: Ex vivo autoradiography was performed on 6-8 month old male Sprague-Dawley rats to confirm the brain distribution of radiolabeled VAChT ligands. Mature male Sprague-Dawley rats were injected with ˜500 μCi of (−)-[^11C]3 or (−)-[^18F]9a via the tail vein under isoflurane/oxygen anesthesia, respectively. The rats were euthanized after 1 h and the brains were quickly removed and placed in a metal brain matrix with slots spaced at 1 mm intervals. The brains were then frozen in the matrix and sectioned into 100 μm coronal slices. Brain slices were carefully removed from the brain matrix razor blades and placed on a clear sheet covered with film and mounting on glass slides. Then, the brain sections were exposed to the film in an imaging cassette for 12 h before they were counted by the FLA7000. Photographic images were obtained using a flatbed scanner. […] There was also moderate uptake in other regions, which may be caused by the moderate binding activity to σ1 receptor. The quantification of autoradiography from entire 30 brain slices indicated the uptake ratio of radioactivity in striatum versus cerebellum reached 1.75 and 1.54, respectively. (FIGS. 6B and 6D)

VAChT [2] = conditions: cynomolgus monkey, in vivo
Method: PET studies were performed on adult male cynomolgus monkeys (6-8 kg) with a MicroPET Focus 220 scanner (Concorde/CTI/Siemens Microsystems, Knoxville, Tenn.). The animal was anesthetized using an intramuscular injection with ketamine (10-20 mg/kg) and glycopyrrolate (0.013-0.017 mg/kg) and then transported to the PET scanner suit. After arrival, the animal was intubated with an endotracheal tube and anesthesia was maintained at 0.75-2.0% isoflurane/oxygen throughout the procedure, and then a percutaneous venous catheter was placed for radiotracer injection. A heated water blanket was used to keep the temperature at 37° C. In each MicroPET scanning session, the head was positioned supine in the adjustable head holder with the brain in the center of the field of view. A 10-min transmission scan was performed to check positioning; once confirmed, a 45 min transmission scan was obtained for attenuation correction. Subsequently, a 2 h dynamic emission scan was acquired after administration of 296-410 MBq of (−)-[^11C]3 or (−)-[^18F]9a via the venous catheter. PET scans were collected from 0-120 min with the following time frames: 3×1 min, 4×2 min, 3×3 min and 20×5 min. PET image reconstructed resolution was <2.0 mm full width half maximum for all 3 dimensions at the center of the field of view. Emission data were corrected using individual attenuation and model-based scatter correction and reconstructed using filtered back projection. The first baseline PET image for each animal acted as the target image with the MPRAGE and subsequent PETs co-registered using automated image registration program AIR. All MPRAGE-based volume of interest (VOI) analyses were accomplished by experienced investigators. For quantitative analyses, three-dimensional ROIs (striatum, cerebellum, frontal cortex, occipital cortex, temporal, midbrain, hippocampus and thalamus) were transformed to the baseline PET space and then overlaid on all reconstructed PET images to obtain time-activity curves. Activity measures were standardized to body weight and dose of radioactivity injected to yield standardized uptake value (SUV).

[3] = Radiometabolite analysis of NHP arterial plasma; type: in vivo, cynomolgus monkey
Method: In order to further understand the kinetic property, radioactive metabolite analysis on HPLC was performed for NHP plasma. (−)-[^18F]9a was chosen for this study because of the high uptake and longer half live of ^18F. Arterial blood samples (1.2-1.5 mL) were collected at 2, 5, 15, 30, and 60 min post-injection of the radiotracer in a heparinized syringe. Aliquots of whole blood (1 mL) were counted in a well counter, then centrifuged to separate red blood cells from plasma. Aliquots of plasma (400 μL) were deproteinated using ice-cold methanol (0.92 mL) and separated by centrifugation. The solvent extract was then injected onto HPLC to identify the percentage of radioactive parent compound versus any radiolabeled metabolites. The HPLC system consisted of an Agilent SB C-18 analytic HPLC column (250 mm×4.6 mm) and an UV detector with wavelength set at 254 nm. The mobile phase was 43% acetonitrile in 0.1 M ammonium formate buffer (pH 4.5), and the flow rate was 1.0 mL/min. The HPLC fractions were collected at 1 min intervals for 16 min; each fraction was counted by a well counter to determine the radioactivity of each collection. The results were corrected for background radiation and physical decay.

σ1 receptor = σ1 receptor (Cavia porcellus (Guinea pig), UniProt Q60492); assay: σ1 receptor binding, [3H](+)-Pentazocine; conditions: for Ki: oxalate form, homogenates of guinea pig brain, mean ± SEM; for Selectivity ratio VAChT/σ1: ratio of Ki values
Method: (§1) In vitro binding studies were performed to measure the affinities to the VAChT and σ1 and σ2 receptors. VAChT binding was assayed using membrane homogenate from PC12 cells which overexpress human VAChT.^8 The σ1 and σ2 binding affinities were assayed in […], respectively.
(§2) Briefly, to measure the σ1 receptor binding affinity, we use guinea pig brain membrane homogenates (˜300 μg protein) tissues as the receptor resource and ˜5 nM [^3H](+)-Pentazocine (34.9 Ci/mmol, Perkin Elmer, Boston, Mass.) as the radioligand. The mixture was incubated in 96-well plates for 90 min at room temperature. Nonspecific binding was determined from samples containing 10 μM of nonradioactive Haloperidol. After 90 min, the mixture was transferred into a 96-well fiberglass filter plate (Millipore, Billerica, Mass.) presoaked with 100 μL of 50 mM Tris-HCl buffer at pH 8.0 for 60 min, followed by addition of 150 μL of ice-cold wash buffer (10 mM Tris-HCl, 150 mM NaCl, pH 7.4). The harvested samples were filtered rapidly and washed with 3×200 μL portions of ice-cold wash buffer, and the filterers were counted by a Wallac 1450 MicroBeta liquid scintillation counter (Perkin-Elmer, Boston, Mass.). […] The mixture was incubated for 120 min at room temperature. Nonspecific binding was determined from samples containing 10 μM of nonradioactive Haloperidol. All other procedures were similar to those described for the σ1 receptor binding assay above. Data from the competitive binding experiments were modeled using nonlinear regression analysis to determine the concentration that inhibits 50% of the specific binding of the radioligand. Competitive binding curves were best fit to a one-site fit and gave pseudo-Hill coefficients of 0.6-1.0. Ki values were calculated using the method of Cheng and Prusoff,^35 then presented as the mean±SEM.

σ2 receptor = σ2 receptor (Rattus norvegicus (Rat), UniProt Q5U3Y7); assay: σ2 receptor binding, [3H]DTG; conditions: for Ki: oxalate form, homogenates of rat liver; for Selectivity ratio VAChT/σ2: ratio of Ki values
Method: In vitro binding studies were performed to measure the affinities to the VAChT and σ1 and σ2 receptors. […]
as §2

human VAChT = human VAChT (Homo sapiens (Human), UniProt Q16572); assay: VAChT binding, competition against [3H]Vesamicol; conditions: Table 2; oxalate form; expressed human VAChT; mean ± SEM; read-out: Ki (nM) VAChT
Method: as §1
The test compounds were assayed in increments of 10-fold from 0.1 to 10,000 nM concentration. The surfaces of containers were pre-coated with Sigmacote (Sigma-Aldrich, Mo.). Samples containing 200 μg postnuclear supernatant in 200 μL of 110 mM potassium tartrate, 20 mM HEPES (pH 7.4 with KOH), 1 mM dithiothreitol, and 0.02% sodium azide were incubated at 22° C. for 24 h. A volume of 90 μL was filtered in duplicate through GF/F glass fiber filters coated with polyethylenimine and washed. Filter-bound radioactivity was determined by liquid scintillation spectrometry for 10 min per sample. Averaged data were fitted by regression with a rectangular hyperbola to estimate Ki value. All the compounds were independently assayed at least two times.

σ1 receptor, sequence (Q60492 whole entry): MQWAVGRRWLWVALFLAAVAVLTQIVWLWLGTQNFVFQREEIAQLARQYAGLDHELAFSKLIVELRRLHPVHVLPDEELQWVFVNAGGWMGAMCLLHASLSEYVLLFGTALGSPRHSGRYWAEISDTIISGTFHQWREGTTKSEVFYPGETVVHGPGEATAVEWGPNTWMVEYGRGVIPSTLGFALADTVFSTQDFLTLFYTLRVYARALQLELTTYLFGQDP
human VAChT, sequence (Q16572 whole entry): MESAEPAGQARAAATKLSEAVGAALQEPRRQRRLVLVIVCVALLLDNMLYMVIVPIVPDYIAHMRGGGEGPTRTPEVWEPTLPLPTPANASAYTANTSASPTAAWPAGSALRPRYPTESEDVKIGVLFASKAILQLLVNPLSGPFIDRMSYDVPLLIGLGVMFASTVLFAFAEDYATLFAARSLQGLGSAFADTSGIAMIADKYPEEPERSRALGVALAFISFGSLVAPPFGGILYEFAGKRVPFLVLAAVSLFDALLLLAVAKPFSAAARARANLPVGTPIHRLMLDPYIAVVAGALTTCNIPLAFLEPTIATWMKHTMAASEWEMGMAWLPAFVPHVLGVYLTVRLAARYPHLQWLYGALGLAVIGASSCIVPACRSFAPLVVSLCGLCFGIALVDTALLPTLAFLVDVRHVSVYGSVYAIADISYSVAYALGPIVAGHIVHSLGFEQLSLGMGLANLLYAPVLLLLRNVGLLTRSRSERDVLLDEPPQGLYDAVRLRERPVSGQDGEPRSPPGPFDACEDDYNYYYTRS
σ2 receptor, sequence (Q5U3Y7 whole entry): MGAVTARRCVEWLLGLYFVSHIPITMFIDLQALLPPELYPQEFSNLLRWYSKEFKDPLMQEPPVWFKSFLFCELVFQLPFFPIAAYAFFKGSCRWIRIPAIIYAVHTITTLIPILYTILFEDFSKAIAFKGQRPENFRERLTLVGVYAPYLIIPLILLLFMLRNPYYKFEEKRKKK
VAChT (Rattus norvegicus (Rat), UniProt Q62666), sequence (Q62666 whole entry): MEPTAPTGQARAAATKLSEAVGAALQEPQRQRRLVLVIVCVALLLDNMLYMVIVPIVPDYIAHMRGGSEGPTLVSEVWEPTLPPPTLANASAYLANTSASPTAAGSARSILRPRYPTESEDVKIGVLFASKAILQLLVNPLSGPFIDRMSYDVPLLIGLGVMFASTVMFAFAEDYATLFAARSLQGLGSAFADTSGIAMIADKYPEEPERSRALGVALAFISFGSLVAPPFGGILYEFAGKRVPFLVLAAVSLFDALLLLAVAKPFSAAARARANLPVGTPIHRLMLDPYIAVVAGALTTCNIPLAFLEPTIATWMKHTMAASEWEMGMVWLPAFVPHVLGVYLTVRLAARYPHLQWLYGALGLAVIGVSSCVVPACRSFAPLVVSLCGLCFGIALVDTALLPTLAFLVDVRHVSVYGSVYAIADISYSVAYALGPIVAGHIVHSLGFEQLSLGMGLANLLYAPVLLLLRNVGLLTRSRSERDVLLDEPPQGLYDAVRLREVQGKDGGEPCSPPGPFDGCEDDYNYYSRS

uptake ratio of radioactivity in striatum versus cerebellum (VAChT [1])	brain entry (VAChT [2])	maximum standardized uptake value (SUV) in striatum (VAChT [2])	time at which striatal SUV reached maximum (VAChT [2])	percentage of parent compound in plasma ([3]; NHP arterial plasma, 2 min post-injection)	percentage of parent compound in plasma ([3]; NHP arterial plasma, 5 min post-injection)	percentage of parent compound in plasma ([3]; NHP arterial plasma, 15 min post-injection)	percentage of parent compound in plasma ([3]; NHP arterial plasma, 30 min post-injection)	percentage of parent compound in plasma ([3]; NHP arterial plasma, 60 min post-injection)	percentage of hydrophilic radioactive metabolite ([3]; NHP arterial plasma, peaked after 30 min)	metabolism in plasma ([3]; NHP plasma, HPLC metabolite analysis)	Ki (σ1 receptor)	Selectivity ratio VAChT/σ1 (σ1 receptor)	Ki (σ2 receptor)	Selectivity ratio VAChT/σ2 (σ2 receptor)	Ki (human VAChT)	SMILES	brain distribution of radioactivity (autoradiograms) (VAChT [1])	regional brain accumulation (VAChT [2])
1.75	able to enter the NHP brain	4.0	10 min													[11CH3]Sc1ccc(C(=O)C2CCN([C@@H]3Cc4ccccc4C[C@H]3O)CC2)cc1 (single isomer, unassigned) [(−)-[^11C]3]	high accumulation in the VAChT enriched striatum	highest accumulation in the striatal region
1.54	able to enter the NHP brain		6 min	69%	48%	27%	21%	15%	70%	quickly metabolized in the plasma						O=C(c1ccc(SCC[18F])cc1)C1CCN([C@@H]2Cc3ccccc3C[C@H]2O)CC1 (single isomer, unassigned) [(−)-[^18F]9a]	high accumulation in the VAChT enriched striatum	highest accumulation in the striatal region
											34.7 ± 4.9 nM	8.5	> 1000 nM	>243	4.1 ± 0.9 nM	CS(=O)(=O)c1ccc(C(=O)C2CCN(C3Cc4ccccc4CC3O)CC2)cc1 (single isomer, unassigned; (-)) [(−)-2]		
											19 ± 5.6 nM	13.6	> 1000 nM	>714	1.4 nM	CSc1ccc(C(=O)C2CCN(C3Cc4ccccc4CC3O)CC2)cc1 (single isomer, unassigned; (-)) [(−)-3]		
											30.8 ± 4.1 nM	13.4	> 1000 nM	>454	2.2 nM	O=C(c1ccc(SCCF)cc1)C1CCN(C2Cc3ccccc3CC2O)CC1 (single isomer, unassigned; (-)) [(−)-9a]		
											4.1 ± 0.7 nM	2.9	> 1000 nM	>714	1.4 nM	O=C(c1ccc(SCCCF)cc1)C1CCN(C2Cc3ccccc3CC2O)CC1 (single isomer, unassigned; (-)) [(−)-9b]		
